PubChem BioAssay (NCI)
Values joined by “and” are separate entries in the source; they are usually repeats but may differ in a detail not shown here. Identical values can stand only once.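 Step 1: Grow cells in 96-well plates. Step 2: Expose to compound for 48 hours at 5 concentrations. Step 3: Interpolate endpoints linearly; if unreached, use highest concentration. GI50: concentration for 50% inhibition of growth. Definition used: TGI = concentration required for complete inhibition of growth.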

Assays:
Assay in all cases: growth of human tumour cells (NCI), 48 h
HOP-62 NSCLC = tested on: HOP-62 NSCLC
SN12C renal = tested on: SN12C renal
RPMI-8226 leukemia = tested on: RPMI-8226 leukemia
MCF7 breast = tested on: MCF7 breast
EKVX NSCLC = tested on: EKVX NSCLC
NCI-H23 lung = tested on: NCI-H23 lung
SW-620 colon = tested on: SW-620 colon
SF-295 CNS = tested on: SF-295 CNS
SK-MEL-5 melanoma = tested on: SK-MEL-5 melanoma
UO-31 renal = tested on: UO-31 renal

| Structure (SMILES) | GI50 (HOP-62 NSCLC) [µM] | TGI (HOP-62 NSCLC) [µM] | GI50 (SN12C renal) | TGI (SN12C renal) [µM] | GI50 (RPMI-8226 leukemia) | TGI (RPMI-8226 leukemia) [µM] | GI50 (MCF7 breast) | TGI (MCF7 breast) [µM] | GI50 (EKVX NSCLC) | TGI (EKVX NSCLC) [µM] | GI50 (NCI-H23 lung) | TGI (NCI-H23 lung) | GI50 (SW-620 colon) | TGI (SW-620 colon) [µM] | GI50 (SF-295 CNS) | TGI (SF-295 CNS) [µM] | GI50 (SK-MEL-5 melanoma) [µM] | TGI (SK-MEL-5 melanoma) | GI50 (UO-31 renal) | TGI (UO-31 renal) |
| --- | --- | --- | --- | --- | --- | --- | --- | --- | --- | --- | --- | --- | --- | --- | --- | --- | --- | --- | --- | --- |
| O=C(C=C=Nc1ccccc1)C(=O)N=C=Cc1ccccc1 | 21.4 | 52.6 | 4.71 µM | 19.4 | 0.534 µM | 2.29 | 2.35 µM | 12.6 | 6.81 µM | 22.8 | 4.55 µM | 19.5 µM | 1.72 µM | 3.61 | 14.5 µM | 40.9 | 5.16 | 17.7 µM | 1.63 µM | 3.82 µM |
| CCOC(=O)c1c(C)n(Cc2ccccc2)c2c1cc1oc(=O)c(=O)n3cnc2c13 | 29.4 | > 50 | 10.4 µM | 24.9 | 1.86 µM | 14.1 | 17.7 µM | > 50 | 13 µM | 39.7 | 14.4 µM | > 50 µM | 14.1 µM | 34.7 | 16.2 µM | > 50 | 10.4 | 26.7 µM | 25.6 µM | > 50 µM |
| O=C(NOCCO)c1cc(CN2OCCCC2=O)c(F)c(F)c1Nc1ccc(I)cc1F | 0.0195 | > 100 | 2.15 µM and 2.17 µM | > 100 | 21.7 µM and > 5.14 µM | > 84.4 | 28.8 µM and > 10 µM | > 100 | 0.0599 µM and 0.0806 µM | > 74.5 | < 0.0222 µM and 0.0545 µM | 26.5 µM and > 10 µM | < 0.01 µM and 0.00529 µM | > 100 | 16.9 µM and > 10 µM | > 75.4 | 0.597 | 23.9 µM and > 10 µM | 0.17 µM and 0.164 µM | 13.1 µM and > 10 µM |
| COc1ccc(C(=O)c2cc3c(N)c(C(=O)Nc4cccc(OC)c4)sc3nc2C)cc1 | – | > 100 | 0.867 µM | > 100 | 0.39 µM | – | 0.42 µM | > 100 | 0.997 µM | > 100 | 1.7 µM | > 100 µM | 0.446 µM | > 100 | 0.601 µM | > 100 | 0.643 | > 46.1 µM | 1.14 µM | > 100 µM |
| Cc1cc(Br)cc(C)c1NC(=O)C(=O)Nn1c(=S)[nH]c2ccccc2c1=O | – | > 100 | – | > 100 | – | > 100 | – | > 100 | – | > 100 | – | > 100 µM | – | > 100 | – | > 100 | – | > 100 µM | – | > 100 µM |
| COc1cc(/C=N/NC(=O)c2ccccc2Nc2cccc(C(F)(F)F)c2)cc(OC)c1OC | 3.23 | 11 | 5.94 µM | 15.4 | 0.754 µM | > 22.7 | 1.57 µM | 6.86 | 3.08 µM | 19.5 | 6.37 µM | 23.1 µM | 1.71 µM | 6.36 | 0.471 µM | 3.04 | 2.93 | 10.8 µM | 6.11 µM | 21.5 µM |
| CC(N1CCOCC1)C(O)(c1ccccc1)c1ccccn1 (stereo not drawn) | – | > 100 | – | > 100 | – | > 100 | – | > 100 | – | > 100 | – | > 100 µM | – | > 100 | – | > 100 | – | > 100 µM | – | > 100 µM |
| O=C(CCCCCCCCC(=O)N/N=C\c1cc(Cl)ccc1O)N/N=C\c1cc(Cl)ccc1O | 0.284 | > 100 | 0.427 µM | > 100 | 0.847 µM | > 100 | 0.364 µM | > 100 | 3.49 µM | > 100 | 0.636 µM | > 67.3 µM | 0.916 µM | > 100 | 1.11 µM | > 46.5 | 0.161 | 0.659 µM | 0.152 µM | > 100 µM |
| O=C(/C=C/c1ccco1)c1ccc(Nc2nc(Nc3ccc(F)cc3)nc(Nc3ccc(F)cc3)n2)cc1 | 57.4 | > 100 | 54.8 µM | > 100 | 8.99 µM | > 100 | 3.74 µM | 25.9 | 54.3 µM | > 100 | 16.4 µM | 37 µM | 19 µM | > 100 | 23.8 µM | 48.9 | 27 | > 100 µM | 14.7 µM | 37.2 µM |
| Cc1c(Cl)cccc1NC(=O)c1sc2nc3c(cc2c1N)CCCC3 | 0.451 | > 100 | 5.88 µM | > 100 | 1.61 µM | > 100 | 0.274 µM | > 100 | 0.64 µM | > 100 | 9.15 µM | > 100 µM | 0.471 µM | > 100 | 0.346 µM | > 100 | 0.513 | > 100 µM | 3.03 µM | > 100 µM |
